Reference: patent US5637318A, “Dermatological agent for assisting the transport of oxygen in the skin” (Lancaster Group AG, priority 1992, dated 1997)
Read-outs that look alike come from different tables or passages of the source.

Key:
[1] = 37° C.; cited from earlier work
[2] = Critical solubility temperature (CST) in n-hexane; assay type: physicochemical; settings: represented by CST in n-hexane
Source text: The choice of fluorocarbons or mixtures thereof according to their lipid solubility (represented by their critical solubility temperature CST in n-hexane) permits, as a further important criterion, the regulation of the residence time in the tissue.

[3] = tested on: skin tissue; experiment: Penetration and residence of labelled encapsulated fluorocarbons in skin tissue, animal experiments
Source text: (§1) It was possible to determine the dependence of the penetration rate and the depth of penetration of the particle size of the aggregates experimentally by separate investigations in animal experiments using labelled encapsulated fluorocarbons. […] The choice of fluorocarbons or mixtures thereof according to their lipid solubility (represented by their critical solubility temperature CST in n-hexane) permits, as a further important criterion, the regulation of the residence time in the tissue.

[4] = tested on: skin tissue; settings: in vivo
Source text: as §1

SMILES	Vapour Pressure [1] [mm Hg]	lipid solubility [2]	residence time in the tissue / release from the tissue [3]	residence time in the tissue / release from the tissue [4]
FC1(F)OC(F)(F)C(F)(F)N(C(F)(F)C2(F)C(F)(F)C(F)(F)C(F)(F)C(F)(F)C2(F)F)C1(F)F [F-cyclohexylmethyl-morpholine]	4	–	–	–
FC(F)(F)C(F)(F)C(F)(F)C(F)(F)C(F)(F)C(F)(F)OC(F)(F)C(F)(F)C(F)(F)C(F)(F)C(F)(F)C(F)(F)F [F-dihexyl ether]	2	–	–	–
FC(F)(F)C(F)(F)C(F)(F)C(F)(F)C(F)(F)C(F)(F)F [F-hexane]	414	–	–	–
FC(F)(F)C1(F)C(F)(F)C(F)(F)C(F)(F)C(F)(F)C1(F)F [F-methylcyclohexane]	180	–	–	–
FC(F)(F)C(F)(F)C(F)(F)C(F)(F)N(C(F)(F)C(F)(F)C(F)(F)C(F)(F)F)C(F)(F)C(F)(F)C(F)(F)C(F)(F)F [F-tributylamine]	1	poor lipid solubility	relatively large residence time	–
FC(F)(F)C(F)(F)C(F)(F)N(C(F)(F)C(F)(F)C(F)(F)F)C(F)(F)C(F)(F)C(F)(F)F [F-tripropylamine]	18.5	–	–	–
FC(F)(F)C(F)(F)C(F)(F)C(F)(F)C1(F)OC(F)(F)C(F)(F)C1(F)F (centres unmarked) [Perfluorobutyl-tetrahydrofuran]	51	–	released correspondingly more rapidly from the tissue	–
FC1(F)C(F)(F)C(F)(F)C2(F)C(F)(F)C(F)(F)C(F)(F)C(F)(F)C2(F)C1(F)F (centres unmarked) [Perfluorodecalin]	12.5	–	–	released correspondingly more rapidly from the tissue
FC(F)(F)C(F)(F)C(F)(F)C(F)(F)C(F)(F)C(F)(F)C(F)(F)C(F)(F)Br [Perfluorooctyl bromide]	14	–	–	–
FC(F)(F)C(F)(F)C(F)(F)C(F)(F)C=CC(F)(F)C(F)(F)C(F)(F)C(F)(F)F [bis-F(butyl)ethene]	12.6	–	–	–
